In brackets after ≈: the same amount, converted by molar mass. Structures can show the parent of a compound that is named as a salt. Where two headings read alike, the source gives them in different places.
Columns and labels:
[1] = Test 3: solubility test; assay type: physicochemical; settings: kinetic from dmso stock, 1% DMSO, HPLC
Description: Each 15 μL of each test sample (10 mM DMSO solution) was dispensed into 4 Utubes on a 96 well rack. Then, each sample was evaporated to dryness with a rotary evaporator. 3 μL of DMSO was added to each dried sample to be re-dissolved. And, 300 μL of pH 7.4 buffer was added to the 2 wells and 300 μL of pH 1.2 buffer was added to the other 2 wells. After shaking each sample solution, the samples were still stood. Then, each sample solution was centrifuged to remove insoluble matter, and 100 μL of the supernatant was picked up on a 96 well plate. Separately, 2 μL of each test sample (10 mM DMSO solution) was dispensed on a 96 well plate, and diluted with 198 μL of 50% acetonitrile to prepare each 100 μM standard solution. Further, the 100 μM standard solution was diluted with 50% acetonitrile to prepare each 10 μM standard solution. The above test samples for the solubility test and the two kinds of the standard samples were analyzed with a HPLC. The solubility of each test sample was calculated as an area ratio per the standard solutions.

[2] = system: HT-29 cell; experiment: Test 1: growth inhibition in cancer cell (Bulk IC50); assay type: cell-based; settings: Homo sapiens, 96 h, adherent culture, incubated 4 days, CellTiter-Glo
Description: (§1) HCT-116 cell, HT-29 cell, and FaDu cell were obtained from the American Type Culture Collection (ATCC). HCT-116 cell and HT-29 cell were cultivated at 37° C. in the presence of 5% CO2 using McCoy's 5a medium containing 10% fetal bovine serum (FBS), and 1% penicillin/streptomycin; and FaDu cell was cultivated at 37° C. in the presence of 5% CO2 using MEM containing 10% FBS, 1% non-essential amino acid, 1% sodium pyruvate, and 1% penicillin/streptomycin. Each cell was seeded on μClear-plate black 384 wells (Greiner bio-one Cat. No. 781091) in 300-600 cells/well, and then each test sample was added thereto to adjust the final concentration thereof in DMSO to 0.1% and the test wells were incubated for 4 days. And then, the viable cell count of each sample was measured using CellTiter-Glo® Luminescent Cell Viability Assay (Promega), and the concentration to inhibit the cell growth in each test sample by 50% was calculated (Bulk IC50 Value; μM).

[3] = system: HCT-116 cell; experiment: as above; assay type: cell-based; settings: Homo sapiens, 96 h, adherent culture, incubated 4 days, CellTiter-Glo
Description: as §1

[4] = system: FaDu cell; experiment: as above; assay type: cell-based; settings: Homo sapiens, 96 h, adherent culture, incubated 4 days, CellTiter-Glo
Description: as §1

[5] = system: HT-29 cell; experiment: Test 2: inhibition of forming cancer cell sphere (Sphere IC50); assay type: cell-based; settings: Homo sapiens, 96 h, ultra-low attachment plate, serum-free sphere medium, 4 days, CellTiter-Glo
Description: (§2) HCT-116 cell, HT-29 cell, and FaDu cell were obtained from the American Type Culture Collection (ATCC). HCT-116 cell and HT-29 cell were cultivated at 37° C. in the presence of 5% CO2 using McCoy's 5a medium containing 10% fetal bovine serum (FBS), and 1% penicillin/streptomycin; and FaDu cell was cultivated at 37° C. in the presence of 5% CO2 using MEM containing 10% FBS, 1% non-essential amino acid, 1% sodium pyruvate, and 1% penicillin/streptomycin. Each of HCT-116 cell, HT-29 cell, and FaDu cell was seeded on 384 Wells Black Clear Bottom Ultra-Low Attachment Microplate (Corning Cat. No. 3827) in 350-800 cells/well, with DMEM/F12 medium containing 2% B27 supplement (GIBCO), 20 ng/mL epidermal growth factor (EGF) (peprotech), 10 ng/mL basic fibroblast growth factor (bFGF) (peprotech), 5 μg/mL insulin (Sigma), and 1% penicillin/streptomycin. Each test sample was added thereto to adjust the final concentration thereof in DMSO to 0.1% and the test wells were incubated for 4 days. And then, the viable cell count of each sample was measured using CellTiter-Glo® Luminescent Cell Viability Assay (Promega), and the concentration to inhibit the cell growth in each test sample by 50% was calculated (Sphere IC50 Value;μM).

[6] = system: HCT-116 cell; experiment: as above; assay type: cell-based; settings: Homo sapiens, 96 h, ultra-low attachment plate, serum-free sphere medium, 4 days, CellTiter-Glo
Description: as §2

[7] = system: FaDu cell; experiment: as above; assay type: cell-based; settings: Homo sapiens, 96 h, ultra-low attachment plate, serum-free sphere medium, 4 days, CellTiter-Glo
Description: as §2

[8] = aqueous buffer, pH 7.4 buffer, read-out: Solubility pH 7.4
[9] = simulated gastric fluid, pH 1.2 buffer, read-out: Solubility pH 1.2

Row | SMILES | solubility [1, 8] [µg/mL] | solubility [1, 9] [µg/mL] | IC50 [2] [nM] | IC50 [3] [nM] | IC50 [4] [nM] | IC50 [5] [nM] | IC50 [6] [nM] | IC50 [7] [nM]
1 | CN(C)C(=O)c1c(C(F)(F)F)oc2c1C(=O)c1ccccc1C2=O [Example 21, N,N-dimethyl-4,9-dioxo-2-(trifluoromethyl)-4,9-dihydronaphtho[2,3-b]furan-3-carboxamide] | 38 (≈ 113 µM) | 63 (≈ 187 µM) | 300 | 270 | 300 | 320 | 320 | 410
2 | COC(=O)c1c(C(C)=O)oc2c1C(=O)c1ccccc1C2=O [Example 2, Methyl 2-acetyl-4,9-dioxo-4,9-dihydronaphtho[2,3-b]furan-3-carboxylate] | 0.5 (≈ 1.68 µM) | 0.8 (≈ 2.68 µM) | 340 | 280 | 320 | 400 | 380 | 590
3 | CC(=O)c1oc2c(c1C(=O)N1CCOCC1)C(=O)c1ccccc1C2=O [Example 14, 2-Acetyl-3-(morpholine-4-carbonyl)naphtho[2,3-b]furan-4,9-dione] | 121 (≈ 342 µM) | 131 (≈ 371 µM) | 3580 | 740 | 750 | 710 | 1800 | 540
4 | COC(=O)c1c(-c2cccnc2)oc2c1C(=O)c1ccccc1C2=O [Example 12, Methyl 4,9-dioxo-2-(pyridin-3-yl)-4,9-dihydronaphtho[2,3-b]furan-3-carboxylate] | – | – | > 10000 | 6960 | 2340 | > 10000 | > 10000 | 5790
5 | CN(C)C(=O)c1c(-c2ccc(F)cc2)oc2c1C(=O)c1ccccc1C2=O [Example 11, 2-(4-Fluorophenyl)-N,N-dimethyl-4,9-dioxo-4,9-dihydronaphtho[2,3-b]furan-3-carboxamide] | < 0.1 | < 0.1 | 5760 | 5310 | 4470 | 5840 | 5430 | 4460
6 | COC(=O)c1c(C(F)(F)F)oc2c1C(=O)c1ccccc1C2=O [Example 6, Methyl 4,9-dioxo-2-(trifluoromethyl)-4,9-dihydronaphtho[2,3-b]furan-3-carboxylate] | – | – | 2840 | 2350 | 2610 | 3050 | 2830 | 3630
7 | CC(=O)c1oc2c(c1C(=O)N(C)C)C(=O)c1ccccc1C2=O [Example 4, 2-Acetyl-N,N-dimethyl-4,9-dioxo-4,9-dihydronaphtho[2,3-b]furan-3-carboxamide] | 107 (≈ 344 µM) | 115 (≈ 369 µM) | 710 | 590 | 560 | 850 | 3360 | 710
8 | COC(=O)c1c(C(C)(OC)OC)oc2c1C(=O)c1ccccc1C2=O [Example 1, Methyl 2-(1,1-dimethoxyethyl)-4,9-dioxo-4,9-dihydronaphtho[2,3-b]furan-3-carboxylate] | – | – | 2250 | 440 | 380 | 2180 | 1730 | 2150
9 | CC(=O)c1oc2c(c1C(=O)N1CCN(C)CC1)C(=O)c1ccccc1C2=O [Example 5, 2-Acetyl-3-(4-methylpiperazine-1-carbonyl)naphtho[2,3-b]furan-4,9-dione hydrochloride] | 127 | 152 | 570 | 620 | 540 | 600 | 3100 | 660
